According to PubChem BioAssay AID2060496 (Molecular Pharmacology Branch, DTP, NCI, 2025):

Tested on: 276233-004-R-J1-PDC complex spheroid viability
Assay: Anticancer human tumor 276233-004-R-J1-PDC patient-derived colon adenocarcinoma cell line growth inhibition [GQUAD]
Details: for IC50: curve of first compound; for viability, T/C: stronger effect = lower value; active = viability on the fitted dose curve at most 10% of control; inactive = the rest
How it was run: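 Tumor cells were grown as complex spheroids with HUVEC endothelial cells and mesenchymal stem cells as stroma. G-quadruplex stabilizers were combined with targeted agents over half-log dilutions from near the clinical Cmax, or from 10 microM.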

[1] = second compound 0.0316 µM, first compound 0.0316 µM
[2] = second compound 0.0316 µM, first compound 0.1 µM
[3] = second compound 0.0316 µM, first compound 0.316 µM
[4] = second compound 0.0316 µM, first compound 1 µM
[5] = second compound 0.0316 µM, first compound 3.16 µM
[6] = second compound 0.0316 µM, first compound 10 µM
[7] = second compound 0.1 µM, first compound 0.0316 µM
[8] = second compound 0.1 µM, first compound 0.1 µM
[9] = second compound 0.1 µM, first compound 0.316 µM
[10] = second compound 0.1 µM, first compound 1 µM
[11] = second compound 0.1 µM, first compound 3.16 µM
[12] = second compound 0.1 µM, first compound 10 µM
[13] = second compound 0.316 µM, first compound 0.0316 µM
[14] = second compound 0.316 µM, first compound 0.1 µM
[15] = second compound 0.316 µM, first compound 0.316 µM
[16] = second compound 0.316 µM, first compound 1 µM
[17] = second compound 0.316 µM, first compound 3.16 µM
[18] = second compound 0.316 µM, first compound 10 µM
[19] = second compound 1 µM, first compound 0.0316 µM
[20] = second compound 1 µM, first compound 0.1 µM
[21] = second compound 1 µM, first compound 0.316 µM
[22] = second compound 1 µM, first compound 1 µM
[23] = second compound 1 µM, first compound 3.16 µM
[24] = second compound 1 µM, first compound 10 µM
[25] = second compound 3.16 µM, first compound 0.0316 µM
[26] = second compound 3.16 µM, first compound 0.1 µM
[27] = second compound 3.16 µM, first compound 0.316 µM
[28] = second compound 3.16 µM, first compound 1 µM
[29] = second compound 3.16 µM, first compound 3.16 µM
[30] = second compound 3.16 µM, first compound 10 µM
[31] = second compound 10 µM, first compound 0.0316 µM
[32] = second compound 10 µM, first compound 0.1 µM
[33] = second compound 10 µM, first compound 0.316 µM
[34] = second compound 10 µM, first compound 1 µM
[35] = second compound 10 µM, first compound 3.16 µM
[36] = second compound 10 µM, first compound 10 µM
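Note: spheroids exposed to drugs for seven days.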
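Throughout, for viability, T/C: 100% = DMSO vehicle control viability.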

O=c1[nH]cc(F)c(=O)[nH]1 + CN(C)c1ccc(Nc2c3ccc(NC(=O)CCN4CCCC4)cc3nc3cc(NC(=O)CCN4CCCC4)ccc23)cc1
> 10 µM: IC50 (second compound 0.0316 µM) | IC50 (second compound 0.1 µM) | IC50 (second compound 0.316 µM) | IC50 (second compound 1 µM) | IC50 (second compound 3.16 µM) | IC50 (second compound 10 µM)
inactive: viability, T/C [1] 93.7% | viability, T/C [2] 83.7% | viability, T/C [3] 108% | viability, T/C [4] 108% | viability, T/C [5] 90.2% | viability, T/C [6] 103% | viability, T/C [7] 92% | viability, T/C [8] 76.5% | viability, T/C [9] 80.5% | viability, T/C [10] 88.5% | viability, T/C [11] 75.1% | viability, T/C [12] 103% | viability, T/C [13] 69.1% | viability, T/C [14] 62.3% | viability, T/C [15] 60.1% | viability, T/C [16] 61% | viability, T/C [17] 72.2% | viability, T/C [18] 61.8% | viability, T/C [19] 66.8% | viability, T/C [20] 62.9% | viability, T/C [21] 63.7% | viability, T/C [22] 66.2% | viability, T/C [23] 52.2% | viability, T/C [24] 59.3% | viability, T/C [25] 59.3% | viability, T/C [26] 58.5% | viability, T/C [27] 54.9% | viability, T/C [28] 57.9% | viability, T/C [29] 69.8% | viability, T/C [30] 62.4% | viability, T/C [31] 49.8% | viability, T/C [32] 54.9% | viability, T/C [33] 51.5% | viability, T/C [34] 46.1% | viability, T/C [35] 51.3% | viability, T/C [36] 59.1%

COc1ccc([C@@H](O)c2cc(-c3ncnc4cc(N5CCOCC5)ccc34)c(F)cc2Cl)nn1 + CN(C)c1ccc(Nc2c3ccc(NC(=O)CCN4CCCC4)cc3nc3cc(NC(=O)CCN4CCCC4)ccc23)cc1
> 10 µM: IC50 (second compound 0.0316 µM)
0.127 µM: IC50 (second compound 3.16 µM)
5.54 µM: IC50 (second compound 0.1 µM)
inactive: viability, T/C [1] 88.8% | viability, T/C [2] 94.6% | viability, T/C [3] 87.7% | viability, T/C [4] 74.5% | viability, T/C [5] 61% | viability, T/C [6] 54.2% | viability, T/C [7] 79.4% | viability, T/C [8] 79.3% | viability, T/C [9] 76.3% | viability, T/C [10] 70.2% | viability, T/C [11] 52.9% | viability, T/C [12] 46.8% | viability, T/C [13] 78% | viability, T/C [14] 63.7% | viability, T/C [15] 52% | viability, T/C [16] 49.1% | viability, T/C [17] 43.7% | viability, T/C [18] 39.1% | viability, T/C [19] 56.5% | viability, T/C [20] 49.5% | viability, T/C [21] 62.5% | viability, T/C [22] 48.8% | viability, T/C [23] 52.4% | viability, T/C [24] 38.2% | viability, T/C [25] 47.4% | viability, T/C [26] 54.2% | viability, T/C [27] 47.6% | viability, T/C [28] 42.2% | viability, T/C [29] 39% | viability, T/C [30] 40.1% | viability, T/C [31] 48.3% | viability, T/C [32] 56.2% | viability, T/C [33] 37.6% | viability, T/C [34] 41.8% | viability, T/C [35] 46.8% | viability, T/C [36] 47.5%
0.134 µM: IC50 (second compound 10 µM)
3.46 µM: IC50 (second compound 1 µM)
0.612 µM: IC50 (second compound 0.316 µM)
